Series [1] is described as follows: Oral bioavailability in Sprague-Dawley rat at 5 mg/kg administration by LC-MS/MS analysis. The conditions noted are these: in vivo. The format is ADME, organism-based.
Series [2] is described as follows: Half life in Sprague-Dawley rat at 1 mg/kg,iv administration by LC-MS/MS analysis. The format is ADME, organism-based. The conditions noted are these: in vivo.

One may read the bioavailability as dose-corrected exposure relative to a reference, in per cent. A higher bioavailability goes with much systemic uptake. What is called half-life is the time needed for the level to fall by half in the phase considered. Low values mean fast loss, high ones slow loss.

Turning to `CNC(=O)c1[nH]c(C(=O)NC2COC2)cc1OC(C)c1ccc(Cl)cc1` (stereo not drawn), in series [1], the bioavailability is 15%. In series [2], this compound showed a half-life of 36 min.
In turn, `CCNC(=O)c1cc(OC(C)c2ccc(Cl)cc2)c(C(=O)NC)[nH]1` (stereo not drawn) displayed a bioavailability in series [1] of 30%. For the same compound, the half-life in series [2] was 66 min.
Consider `CNC(=O)c1[nH]c(C(=O)NC2CC2)cc1O[C@@H](C)c1ccccc1F`, for which the bioavailability in series [1] stood at 70%.
With `CNC(=O)c1[nH]c(C(=O)NC2CCC2)cc1OC(C)c1ccc(Cl)cc1` (stereo not drawn), the bioavailability in series [1] amounted to 47%. Moreover, in series [2], the half-life was 24 min.
In series [1], `CNC(=O)c1[nH]c(C(=O)NC2CCC2)cc1OC(C)c1ccccc1` (stereo not drawn) registered a bioavailability of 66%. This compound had a half-life in series [2] of 54 min.
On to `CCNC(=O)c1cc(OC(C)c2ccc(Cl)cc2F)c(C(=O)NC)[nH]1` (stereo not drawn), for which the bioavailability in series [1] was found to be 69%. In series [2], this compound showed a half-life of 18 min.
In series [1], `CCNC(=O)c1cc(OC(C)c2ccccc2F)c(C(=O)NC)[nH]1` (stereo not drawn) displayed a bioavailability of 46%. Also, the half-life in series [2] is 24 min.
`CNC(=O)c1[nH]c(C(=O)NC2CCC2)cc1OC(C)c1ccccc1F` (stereo not drawn): the bioavailability in series [1] was 58%. This compound also showed a half-life in series [2] of 30 min.
`CNC(=O)c1[nH]c(C(=O)NC2CCC2)cc1OC(C)c1ccc(Cl)cc1F` (single isomer, unassigned) displayed a bioavailability in series [1] of 65%.
For the compound `CNC(=O)c1[nH]c(C(=O)N[C@H]2CC[C@H](O)CC2)cc1OC(C)c1ccc(Cl)cc1F` (stereo partly drawn), the bioavailability in series [1] turned out to be 66%. This compound gave a half-life in series [2] of 84 min.

Source of the values: ChEMBL document CHEMBL5344458, “AI in Pharma: Transforming Drug Discovery and Strategic Management with MYC-Modulating Compounds and BET Protein Inhibitors” (ACS Med Chem Lett, 2024).
